PubChem BioAssay (NCI)
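1) Cells in 96-well plates. 2) Compound, 48 h, 5 concentrations. 3) Linear interpolation between surrounding doses. 4) Unreached endpoint = highest concentration. GI50 is the concentration that inhibits growth by half. The concentration for full growth arrest is given as TGI.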

Legend:
Assay in all cases: NCI tumour cell line growth inhibition, 48 h
HOP-92 NSCLC = system: HOP-92 NSCLC
MOLT-4 leukemia = system: MOLT-4 leukemia
OVCAR-4 ovarian = system: OVCAR-4 ovarian
ACHN renal = system: ACHN renal
M14 melanoma = system: M14 melanoma
SR leukemia = system: SR leukemia
KM12 colon = system: KM12 colon
A549 NSCLC = system: A549 NSCLC
786-0 renal = system: 786-0 renal

Compound | TGI (HOP-92 NSCLC) | TGI (MOLT-4 leukemia) | TGI (OVCAR-4 ovarian) | TGI (ACHN renal) | TGI (M14 melanoma) | TGI (SR leukemia) | TGI (KM12 colon) | TGI (A549 NSCLC) | TGI (786-0 renal) | GI50 (HOP-92 NSCLC) | GI50 (MOLT-4 leukemia) | GI50 (OVCAR-4 ovarian) | GI50 (ACHN renal) | GI50 (M14 melanoma) | GI50 (SR leukemia) | GI50 (KM12 colon) | GI50 (A549 NSCLC)
COC1=C(C)C(=O)c2c(c(COC(N)=O)c3n2CC(OC(C)=O)C3OC(C)=O)C1=O (stereo unspecified) | 0.54 µM | 2.03 µM | 1.03 µM | 1.03 µM | 0.514 µM | 0.0442 µM | 0.939 µM | 1.6 µM | 0.0581 µM |  |  |  |  |  |  |  | 
CSc1n[nH]c(N)c1C(=O)Nc1ccccc1 |  | > 100 µM | > 100 µM |  | > 100 µM | > 100 µM | > 100 µM | > 100 µM | > 100 µM |  |  |  |  |  |  |  | 
CN(C)CC1CCC(CN(C)C)C1=O (stereo unspecified) | 4.07 µM | 4.03 µM | 15.8 µM | 11.1 µM | 7.38 µM | > 100 µM | 26.7 µM | 39 µM | 4.11 µM | 1.93 µM |  |  |  |  |  |  | 
C[n+]1c(-c2ccc(/C=C/C=N\NC(=O)c3ccc(C(=O)N/N=C\C=C\c4ccc(-c5cn6ccccc6[n+]5C)cc4)cc3)cc2)cn2ccccc21 | > 100 µM | > 100 µM | > 100 µM | > 100 µM | > 100 µM | 42.3 µM | > 57.5 µM | > 100 µM | > 56.2 µM |  |  |  |  |  |  |  | 
COc1cc2c(cc1Cc1c(F)cccc1Cl)nc(-c1c(F)cccc1Cl)n2Cc1c(F)cccc1Cl | 37.6 µM | > 100 µM | > 100 µM | > 100 µM | > 100 µM | > 100 µM | > 100 µM | > 100 µM | 64.2 µM |  |  |  |  |  |  |  | 
COc1ccc(CC2COc3cc(O)cc(O)c3C2=O)cc1O (stereo unspecified) | > 100 µM | > 100 µM | > 100 µM | > 100 µM | > 100 µM | > 100 µM | 43.9 µM | > 100 µM | 92.3 µM |  |  |  |  |  |  |  | 
COc1ccc(CN2C3CC2CN(c2ccc(-c4cc(OCC(C)(C)O)cn5ncc(C#N)c45)cn2)C3)cn1 | 7.35 µM | > 100 µM | > 100 µM | > 100 µM | > 100 µM | > 100 µM | > 100 µM | > 100 µM |  | 2.12 µM | 52.9 µM | 3.63 µM | 6.86 µM | 24.2 µM | 4.45 µM | > 100 µM | 6.27 µM
CCON1CC(C(=O)OC)=C(O)C1=O | > 100 µM | > 100 µM | > 100 µM | > 100 µM | > 100 µM |  | > 100 µM | > 100 µM | > 100 µM |  |  |  |  |  |  |  | 
N#Cc1nc(NC(=O)c2ccccc2C(=O)O)c(C#N)[nH]1 | > 100 µM | > 100 µM |  | > 100 µM | > 100 µM |  | > 100 µM | > 100 µM | > 100 µM |  |  |  |  |  |  |  | 
CC(=O)OC1C(COC(=O)c2ccccc2)OC(Nc2ncc(-c3ccc(Br)cc3)s2)C(OC(=O)c2ccccc2)C1OC(=O)c1ccccc1 (stereo unspecified) | > 100 µM | > 100 µM | > 100 µM | > 100 µM | > 100 µM | > 100 µM |  | > 100 µM | > 100 µM |  |  |  |  |  |  |  | 
COc1ccc(C2c3cc4c(cc3OC(N3CCOCC3)C2C)OCO4)c(OC)c1OC (stereo unspecified) |  | 34 µM |  | 64.9 µM | 33.5 µM | 35.6 µM | 30.8 µM | > 100 µM | 43.2 µM |  |  |  |  |  |  |  | 
COC(=O)c1cc(C#N)[nH]c1-c1cc(Br)cs1 | 19.1 µM | 50.8 µM | > 57.7 µM | 61.9 µM | 27.7 µM | > 66.3 µM | > 53.4 µM | 31.7 µM | 48.7 µM |  |  |  |  |  |  |  | 
COc1cc(NC(C)=O)ccc1C(=O)NN1C(=O)/C(=C/c2ccco2)N=C1c1ccccc1 | > 50 µM | 45.6 µM | > 50 µM | > 50 µM | > 50 µM | > 50 µM |  | > 50 µM | > 50 µM |  |  |  |  |  |  |  | 
CC(=O)O[C@H]1CCc2c(cc(N)c3c2C(=O)C[C@]2(C)C([C@H](C)CCCC(C)C)CCC32C)C1(C)C (stereo partly specified) | > 100 µM | > 100 µM | > 100 µM | > 100 µM | > 100 µM | > 100 µM | > 100 µM | > 100 µM | > 100 µM |  |  |  |  |  |  |  | 
CC(NC(=O)N(C)C)NC(=O)N(C)C | > 10 µM | > 10 µM | > 10 µM | > 10 µM | > 10 µM | > 10 µM | > 10 µM | > 10 µM | > 10 µM |  |  |  |  |  |  |  | 
O=c1cc(N2CCCC2)[nH]c(=O)n1-c1ccccc1 | > 100 µM | > 100 µM | > 100 µM | > 100 µM | > 100 µM | > 100 µM | > 100 µM | > 100 µM | > 100 µM |  |  |  |  |  |  |  | 
Cc1ccc(/C=C2\Cc3c(C)cc(C)cc3C2=O)c(C(=O)O)c1 | > 100 µM | > 100 µM | > 100 µM | > 100 µM | > 100 µM | 68.7 µM | > 100 µM | > 100 µM | > 100 µM |  |  |  |  |  |  |  | 
CC(C(=O)O)C(C)(O)C(=O)O (stereo unspecified) |  | > 100 µM | > 100 µM |  | > 100 µM | > 100 µM | > 100 µM | > 100 µM | > 100 µM |  |  |  |  |  |  |  | 
OCc1ccc2c(c1)CC1(Cc3ccc(/C=N/O)cc3C1)C2 (stereo unspecified) | 59.5 µM | > 40.4 µM | > 61.7 µM | > 80.6 µM | 21.6 µM | > 100 µM | 19.1 µM | > 100 µM | > 100 µM |  |  |  |  |  |  |  | 
C\C(=N/N=C1/C(=C\N(C)C)C(=O)NC(=O)N1C)c1ccc(Cl)cc1 | > 100 µM | > 100 µM | > 100 µM | > 100 µM | > 100 µM |  | > 100 µM | > 100 µM | > 100 µM |  |  |  |  |  |  |  | 
Cc1cnc2c(c1)C(=O)C1=C(C2=O)C2OC(=O)CC2OC1(C)C (stereo unspecified) | 0.384 µM |  | 0.359 µM | 0.39 µM | 0.824 µM | 0.29 µM | 1.73 µM | 5.62 µM | 0.9 µM |  |  |  |  |  |  |  | 
CNC(=O)CCCNC(=O)CCCC(=O)N(C)C | > 100 µM | > 100 µM |  | > 100 µM | > 100 µM |  | > 100 µM | > 100 µM | > 100 µM |  |  |  |  |  |  |  | 
